The values that follow come from US9499530B2 (HANGZHOU MINSHENG INSTITUTES FOR PHARMA RESEARCH, priority 2011, dated 2016).

For series [1], the target named is KDR (Vascular Endothelial Growth Factor Receptor 2) (Homo sapiens, UniProt P35968). As to the kind of experiment: ELISA protein tyrosine kinase inhibition, KDR. It counts as biochemical. The note with it: for IC50: ELISA, Poly(Glu, Tyr) 4:1 substrate, ATP 5 μM, test samples at 10-5 mol/l, read-out: KDR inhibitory activity (IC50 class). An excerpt: (§1) Determining the Effect of Test Samples at a Concentration of 10-5 Mol/l on the Activity of the Substrate Phosphoryation Catalyzed by EGFR (Epidermal Growth Factor Receptor 1), ErbB-2 (Epidermal Growth Factor Receptor 2), ErbB-4, KDR (Vascular Endothelial Growth Factor Receptor 2) Protein Tyrosine Kinases at Molecular Level
KDR (Vascular Endothelial Growth Factor Receptor 2), sequence (P35968 20-1356): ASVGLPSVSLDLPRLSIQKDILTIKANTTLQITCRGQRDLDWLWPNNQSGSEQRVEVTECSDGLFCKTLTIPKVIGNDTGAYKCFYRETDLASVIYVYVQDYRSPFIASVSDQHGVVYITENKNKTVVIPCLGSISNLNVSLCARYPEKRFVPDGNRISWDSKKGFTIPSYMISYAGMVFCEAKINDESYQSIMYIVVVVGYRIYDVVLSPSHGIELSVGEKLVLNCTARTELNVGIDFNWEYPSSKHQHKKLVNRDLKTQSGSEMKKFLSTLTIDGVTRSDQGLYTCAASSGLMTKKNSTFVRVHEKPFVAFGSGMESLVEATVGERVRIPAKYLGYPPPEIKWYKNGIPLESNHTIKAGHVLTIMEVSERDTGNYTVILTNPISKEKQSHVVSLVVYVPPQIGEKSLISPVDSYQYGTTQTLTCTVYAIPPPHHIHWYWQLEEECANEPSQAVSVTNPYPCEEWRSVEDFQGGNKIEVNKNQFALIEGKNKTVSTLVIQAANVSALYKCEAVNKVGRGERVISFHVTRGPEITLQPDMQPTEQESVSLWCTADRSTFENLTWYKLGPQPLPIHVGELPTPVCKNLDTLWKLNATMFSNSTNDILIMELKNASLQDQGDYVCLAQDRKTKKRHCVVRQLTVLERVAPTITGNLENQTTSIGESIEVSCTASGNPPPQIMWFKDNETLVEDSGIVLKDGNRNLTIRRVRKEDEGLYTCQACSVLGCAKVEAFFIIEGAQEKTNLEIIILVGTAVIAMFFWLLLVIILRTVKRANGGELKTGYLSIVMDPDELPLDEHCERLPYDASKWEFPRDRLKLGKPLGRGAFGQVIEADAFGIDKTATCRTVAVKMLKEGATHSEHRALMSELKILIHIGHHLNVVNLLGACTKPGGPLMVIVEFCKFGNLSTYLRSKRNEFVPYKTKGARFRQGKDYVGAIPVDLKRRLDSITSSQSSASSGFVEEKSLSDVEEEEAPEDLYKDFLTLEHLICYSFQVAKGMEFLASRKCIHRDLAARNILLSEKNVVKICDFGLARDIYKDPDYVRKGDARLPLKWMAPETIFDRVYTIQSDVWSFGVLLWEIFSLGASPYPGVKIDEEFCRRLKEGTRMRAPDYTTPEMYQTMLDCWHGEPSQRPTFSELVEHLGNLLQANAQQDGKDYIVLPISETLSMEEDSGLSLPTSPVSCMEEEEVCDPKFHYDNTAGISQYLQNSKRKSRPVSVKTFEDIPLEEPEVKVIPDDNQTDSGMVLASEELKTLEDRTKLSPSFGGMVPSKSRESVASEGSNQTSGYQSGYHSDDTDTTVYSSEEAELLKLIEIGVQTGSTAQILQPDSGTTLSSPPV
(§2) Enzyme-Linked Immunosorbent Assay (ELISA)
(§3) Main instrument: wavelength-tunable microplate reader (VERSAmax).
(§4) Main reagents: kinase reaction substrate Poly(Glu, Tyr) 4:1 from Sigma; anti-phosphotyrosine monoclonal antibody PY99 from Santa Cruz; horseradish peroxidase-labeled goat anti-mouse IgG from Calbiochem; ATP, DTT, OPD from Amresco, and ELISA plate from Corning.
(§5) Poly(Glu, Tyr)4:1 as an enzyme substrate was diluted by potassium ion-free PBS into 20 μg/ml, and an ELISA plate was coated and subjected to reaction for 12-16 h at 37° C. After the liquid in wells was removed, the plate was washed three time by T-PBS, 5 min for each time. The ELISA plate was then dried in an oven at 37° C. The coated wells were added with the test samples: the test samples were prepared for a stock solution with a concentration of 1×10^−2M in DMSO. The aliquot solution was stored at −20° C., and diluted to the desired concentration with reaction buffer before use. The resulting solution was added into the wells so that the final concentration of 10-5 mol/l in 100 μL reaction system can be obtained. At the same time, a positive control well was set up and a positive control compound Su11248 was added. ATP and test tyrosine kinases were added: ATP solution diluted with reaction buffer was added (the final concentration of ATP is 5 μM). Finally, the test tyrosine kinases solution diluted with reaction buffer was added. The total volume of the reaction system was […]. Meanwhile, a negative control well and a control well without enzyme were set up. The reaction system was placed in a wet box, and shaked for 1 hour at 37° C., shielding from light. After the reaction was complete, the plate was washed by T-PBS three times. Antibody PY99 was added at 100 μL/well; and the plate was shaked for 30 min at 37° C. After the reaction was complete, the plate was washed with T-PBS three times. Horseradish peroxidase-labeled goat anti-mouse IgG was added at 100 μL/well, and the plate was shaked for 30 min at 37° C. The plate was washed with T-PBS three times. OPD developing liquid was added at 100 μL/well, and reacted for 1-10 min at room temperature, shielding from light. 50 μL of 2 M H2SO4 was added to stop the reaction. A492 value was determined using wavelength-tunable microplate reader. The inhibition ratio of the samples can be calculated by the following equation: […]
In general terms: ELISA stands for enzyme-linked immunosorbent assay.

The target in series [2] is EGFR (Epidermal Growth Factor Receptor 1) (Homo sapiens, UniProt P00533). As to the kind of experiment: ELISA protein tyrosine kinase inhibition, EGFR. It counts as biochemical. The note with it: for IC50: ELISA, Poly(Glu, Tyr) 4:1 substrate, ATP 5 μM, test samples at 10-5 mol/l, read-out: EGFR inhibitory activity (IC50 class).
Excerpt: as §1, §2, §3, §4, §5

Series [3] concerns the target ErbB-2 (Epidermal Growth Factor Receptor 2) (Homo sapiens, UniProt P04626). Put plainly: ELISA protein tyrosine kinase inhibition, ErbB-2. In kind it is biochemical. Conditions: Poly(Glu, Tyr) 4:1 substrate, ATP 5 μM, test samples at 10-5 mol/l, read-out: ErbB2 inhibitory activity (IC50 class).
Excerpt: as §1, §2, §3, §4, §5

Series [4] concerns the target ErbB-4 (Homo sapiens, UniProt Q15303). Put plainly: ELISA protein tyrosine kinase inhibition, ErbB-4. In kind it is biochemical. Conditions: for IC50: ELISA, Poly(Glu, Tyr) 4:1 substrate, ATP 5 μM, test samples at 10-5 mol/l, read-out: ErbB4 inhibitory activity (IC50 class).
Excerpt: as §1, §2, §3, §4, §5

Series [5] has as its system human lung cancer A549 xenograft. As to the kind of experiment: Growth inhibition of A549 xenograft in nude mice. In kind it is in vivo. Conditions: for growth inhibition of human lung cancer A549 compared with positive control lapatinib (in words): xenograft in nude mice, 200 mg/kg. An excerpt:
Objective of the test: Determining the inhibition of some compounds of the present invention to the growth of human lung cancer A549 transplanted into nude mice and the action intensity thereof.
1. Human lung cancer A549 xenograft in nude mice, which was set up by subcutaneously transplantion of the human lung cancer A549 cell lines into right axillary fossa of nude mice. The amount of inoculation is 2×10^6 cells/mouse. Xenograft inoculated into the nude mice was passaged for 3 generations before use.
2. The solvent used in the experiments is: 0.5% of hydroxypropylmethyl cellulose and 0.1% of Tween-80.
3. Vigorous growing tumor tissues were selected to be chopped into approximately 1 mm^3. Under sterile conditions, the tumor tissue blocks were subcutaneously transplanted into right axillary fossa of nude mice. The diameters of the xenograft in nude mice were measured with a vernier caliper. When tumors reached approximately 100-300 mm^3 in size, the animals were randomly divided into groups, wherein there are 12 animals in solvent control group, and 6 animals per group in the other groups. […] The administered dosages were both 200 mg/kg, 5 times per week for consecutive four weeks. The diameters of the tumors were measured twice per week. The negative control group was intragastricly administrated the same amount of solvent. After the experiment, the mice were sacrificed. The tumors were surgically stripped and weighed. The tumor volume (TV) was calculated by the following equation:
[formula] in which a and b represents for the length and the width respectively.
According to the measured results, the relative tumor volume (RTV) was calculated. The calculation equation was: RTV=Vt/V0, wherein V0 is the tumor volume measured during cage administration (i.e. d0), Vt is the tumor volume of each measurement. The evaluation index of anti-tumor activity was the relative tumor growth ratio T/C (%), which was calculated by the following equation: […]
TRTV: treatment group's RTV; CRTV: negative control group's RTV.
For orientation: A xenograft is tissue or cells of one species grown in another, often human tumour cells in immunodeficient mice.

Entries after “also recorded” stand apart in the source; their conditions may differ.

ErbB-4, sequence (Q15303 26-1308): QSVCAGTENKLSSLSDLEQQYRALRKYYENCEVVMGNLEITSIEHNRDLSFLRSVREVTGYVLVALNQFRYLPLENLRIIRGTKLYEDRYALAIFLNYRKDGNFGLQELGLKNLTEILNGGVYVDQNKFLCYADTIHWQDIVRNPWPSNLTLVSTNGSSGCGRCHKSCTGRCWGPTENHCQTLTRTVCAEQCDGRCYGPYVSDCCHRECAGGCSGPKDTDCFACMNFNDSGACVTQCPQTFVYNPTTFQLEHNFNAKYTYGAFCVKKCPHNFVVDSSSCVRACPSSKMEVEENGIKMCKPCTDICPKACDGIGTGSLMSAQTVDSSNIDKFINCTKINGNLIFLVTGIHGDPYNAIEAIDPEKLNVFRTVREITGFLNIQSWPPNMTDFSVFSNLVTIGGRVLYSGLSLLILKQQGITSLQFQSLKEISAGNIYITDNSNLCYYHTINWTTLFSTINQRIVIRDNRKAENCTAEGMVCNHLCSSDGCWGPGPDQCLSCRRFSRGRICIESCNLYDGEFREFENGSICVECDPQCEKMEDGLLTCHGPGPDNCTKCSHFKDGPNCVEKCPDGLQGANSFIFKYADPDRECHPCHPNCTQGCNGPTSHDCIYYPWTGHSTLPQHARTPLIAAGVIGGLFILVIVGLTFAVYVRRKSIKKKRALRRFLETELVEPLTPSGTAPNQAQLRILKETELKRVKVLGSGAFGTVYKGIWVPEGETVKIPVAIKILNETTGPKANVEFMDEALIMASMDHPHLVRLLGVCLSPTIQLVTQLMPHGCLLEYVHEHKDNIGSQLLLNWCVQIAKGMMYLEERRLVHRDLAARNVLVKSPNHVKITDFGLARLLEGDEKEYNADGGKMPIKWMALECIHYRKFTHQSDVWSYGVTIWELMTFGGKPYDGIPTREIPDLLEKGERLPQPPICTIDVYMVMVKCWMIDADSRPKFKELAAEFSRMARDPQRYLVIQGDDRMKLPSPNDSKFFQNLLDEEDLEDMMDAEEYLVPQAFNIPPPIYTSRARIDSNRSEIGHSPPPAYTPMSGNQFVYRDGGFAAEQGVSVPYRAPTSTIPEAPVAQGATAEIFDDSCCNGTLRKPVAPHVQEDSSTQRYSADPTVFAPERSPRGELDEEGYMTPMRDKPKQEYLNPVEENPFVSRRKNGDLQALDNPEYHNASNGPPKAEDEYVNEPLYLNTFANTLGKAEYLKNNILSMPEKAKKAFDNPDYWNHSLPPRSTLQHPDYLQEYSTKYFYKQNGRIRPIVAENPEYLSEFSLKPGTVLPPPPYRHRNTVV

As to `OCC(O)CNCc1ccc(-c2ccc3ncnc(Nc4ccc(OCc5cccc(F)c5)c(Cl)c4)c3c2)o1` (centres unmarked) [MS31, N-(3-chloro-4-((3-fluorobenzyl)oxy)phenyl)-6-(5-(1-(2,3-dihydroxypropyl)amino)methyl-2-furyl)-4-quinazolinamine], the “inhibitory activity against KDR (in words)” value in series [1] is “better inhibitory activity; also recorded: higher inhibitory activity”.
Consider `Fc1cccc(COc2ccc(Nc3ncnc4ccc(-c5ccc(CNCC6CCCC(Cl)C6)o5)cc34)cc2Cl)c1` (centres unmarked) [MS 9, N-(3-chloro-4-((3-fluorobenzyl)oxy)phenyl)-6-(5-((((3-chlorocyclohexyl)methyl)amino)methyl)-2-furyl)-4-quinazolinamine], for which the IC50 is less than 10 µM in series [2], greater than 10 µM in series [3] and less than 10 µM in series [1].
As for `OCCCNCc1ccc(-c2ccc3ncnc(Nc4ccc(OCc5cccc(F)c5)c(Cl)c4)c3c2)o1` [MS42·di-p-toluenesulfonate, N-(3-chloro-4-((3-fluorobenzyl)oxy)phenyl)-6-(5-(((3-hydroxypropyl)amino)methyl)-2-furyl)-4-quinazolinamine], the IC50 in series [2], in series [3], in series [4] and in series [1] was less than 10 µM throughout.
In the case of `CSCCC(NCc1ccc(-c2ccc3ncnc(Nc4ccc(OCc5cccc(F)c5)c(Cl)c4)c3c2)o1)C(=O)O` (centres unmarked) [MS 26, N-(3-chloro-4-((3-fluorobenzyl)oxy)phenyl)-6-(5-((((1-carboxy-3-methylthio)propyl)amino)methyl)-2-furyl)-4-quinazolinamine], the 50% inhibitory concentration (IC50) in series [2] and in series [3] was less than 10 µM throughout. In series [5], the “growth inhibition of human lung cancer A549 compared with positive control lapatinib (in words)” value was “better effective inhibition”.
On to `OCCCCNCc1ccc(-c2ccc3ncnc(Nc4ccc(OCc5cccc(F)c5)c(Cl)c4)c3c2)o1` [MS1, N-(3-chloro-4-((3-fluorobenzyl)oxy)phenyl)-6-(5-(((4-hydroxybutyl)amino)methyl)-2-furyl)-4-quinazolinamine], for which the “inhibitory activity against KDR (in words)” value in series [1] is “better inhibitory activity; also recorded: higher inhibitory activity”.
With `Fc1cccc(COc2ccc(Nc3ncnc4ccc(-c5ccc(CNCC6CCCCC6)o5)cc34)cc2Cl)c1` [MS 7, N-(3-chloro-4-((3-fluorobenzyl)oxy)phenyl)-6-((5-((cyclohexylmethyl)amino)methyl)-2-furyl)-4-quinazolinamine], the half-maximal inhibitory concentration (IC50) in series [2] is less than 10 µM; in series [3] it was greater than 10 µM; in series [1], less than 10 µM.
For the compound `Fc1cccc(COc2ccc(Nc3ncnc4ccc(-c5ccc(CNCCc6cccc(Cl)c6)o5)cc34)cc2Cl)c1` [MS 20, N-(3-chloro-4-((3-fluorobenzyl)oxy)phenyl)-6-(5-(((2-(3-chlorophenyl)ethyl)amino)methyl)-2-furyl)-4-quinazolinamine], the half-inhibitory concentration (IC50) in series [2] is less than 10 µM; in series [3] it was less than 10 µM; in series [1] it was greater than 10 µM.
As to `CC=CCNCc1ccc(-c2ccc3ncnc(Nc4ccc(F)c(Cl)c4)c3c2)o1` [MS 39, N-(3-chloro-4-fluorophenyl)-6-(5-(((2-butenyl)amino)methyl)-2-furyl)-4-quinazolinamine], the IC50 in series [3] was less than 10 µM; in series [1] it was greater than 10 µM.
For `Fc1ccc(Nc2ncnc3ccc(-c4ccc(CNCCC5=CCCCC5)o4)cc23)cc1Cl` [MS41, N-(3-chloro-4-fluorophenyl)-6-(5-(((2-(cyclohexenyl)ethyl)amino)methyl)-2-furyl)-4-quinazolinamine] the same measures were less than 10 µM and greater than 10 µM.
Turning to “N-(3-chloro-4-((3-fluorobenzyl)oxy)phenyl)-6-(5-((4-methylpiperazinyl)methyl)-2-pyrrolidinyl)-4-quinazolinamine [MS 34]”, the “inhibitory activity against EGFR (in words)” value in series [2] is on record as “better inhibitory activity”. Further, the IC50 in series [2], in series [3] and in series [4] was less than 10 µM throughout. The “inhibition of c-ErbB4/HER4 (in words)” value in series [4] is “very good inhibition”.
Turning to `OCC(CO)NCc1ccc(-c2ccc3ncnc(Nc4ccc(OCc5cccc(F)c5)c(Cl)c4)c3c2)o1` [MS6, N-(3-chloro-4-((3-fluorobenzyl)oxy)phenyl)-6-(5-((2-(1,3-dihydroxypropyl)amino)methyl)-2-furyl)-4-quinazolinamine], the “growth inhibition of human lung cancer A549 compared with positive control lapatinib (in words)” value in series [5] is reported as “better effective inhibition; also recorded: better growth inhibition effect”. In series [1], the “inhibitory activity against KDR (in words)” value is reported as “better inhibitory activity; also recorded: higher inhibitory activity”.
For the compound `CCCNCc1ccc(-c2ccc3ncnc(Nc4ccc(F)c(Cl)c4)c3c2)o1` [MS 36, N-(3-chloro-4-fluorophenyl)-6-(5-(((propyl)amino)methyl)-2-furyl)-4-quinazolinamine], in series [5] (A549 xenograft, 200 mg/kg intragastric, 5 times per week for four weeks, end), the “TV (mm^3) End” value is 770.3 ± 212.8^▴ mm^3. The “TV (mm^3) Start” value in series [5] (A549 xenograft, 200 mg/kg intragastric, start of dosing) is given as 155.5 ± 72.8 mm^3. Further, the “T/C (%)” value in series [5] (A549 xenograft, relative tumor growth ratio, 200 mg/kg intragastric, 5 times per week for four weeks) was 36.1%. In addition, the “Weight (g) End” value in series [5] (nude mice with A549 xenograft, 200 mg/kg intragastric, 5 times per week for four weeks, end) was 25.0 ± 1.8 g. Besides, the “Weight (g) Start” value in series [5] (nude mice with A549 xenograft, 200 mg/kg intragastric, start of dosing) worked out at 24.5 ± 1.8 g. The “growth inhibition of human lung cancer A549 compared with positive control lapatinib (in words)” value in series [5] was “better growth inhibition effect”. Further, the figures for the IC50 in series [3] and in series [1] were less than 10 µM and greater than 10 µM, respectively.
In the case of `OCCCNCc1ccc(-c2ccc3ncnc(Nc4ccc(OCc5cccc(F)c5)c(Cl)c4)c3c2)o1` [MS42], the “inhibitory activity against KDR (in words)” value in series [1] is “better inhibitory activity; also recorded: higher inhibitory activity”.
On to `OCCN(CCO)Cc1ccc(-c2ccc3ncnc(Nc4ccc(OCc5cccc(F)c5)c(Cl)c4)c3c2)o1` [MS18, N-(3-chloro-4-((3-fluorobenzyl)oxy)phenyl)-6-(5-((bis(2-hydroxyethyl)amino)methyl)-2-furyl)-4-quinazolinamine], for which the “inhibitory activity against KDR (in words)” value in series [1] was “better inhibitory activity; also recorded: higher inhibitory activity”.
With `OCCNCc1ccc(-c2ccc3ncnc(Nc4ccc(OCc5cccc(F)c5)c(Cl)c4)c3c2)o1` [MS27, N-(3-chloro-4-((3-fluorobenzyl)oxy)phenyl)-6-(5-(((2-hydroxyethyl)amino)methyl)-2-furyl)-4-quinazolinamine], in series [5], the “growth inhibition of human lung cancer A549 compared with positive control lapatinib (in words)” value is “better effective inhibition; also recorded: better growth inhibition effect”. Besides, the “inhibitory activity against KDR (in words)” value in series [1] is given as “better inhibitory activity; also recorded: higher inhibitory activity”.

A word on the IC50: it is the midpoint of a concentration-inhibition curve.
